Experimental data published in paper PMC8022858, “Discovery of bone morphogenetic protein 7-derived peptide sequences that attenuate the human osteoarthritic chondrocyte phenotype” (Molecular Therapy. Methods & Clinical Development, 2021).

Tested on: rat MMT model
Assay: Rat medial meniscal tear (MMT) model, histopathological scoring of knee joints
Type: in vivo
Details: for histology of medial tibia plateau (toluidine blue), cartilage-degenerative changes: 100 ng in 50 μL saline intra-articular, two times per week from 1 week post-surgery, 10 rats per group (Figure 7A); for total joint score: versus saline (Figure 7E)
Experimental: We next tested whether peptide p[63−82] has the potency to delay the progression of trauma-induced cartilage degeneration in the rat MMT model.[34]^,[35] MMT damage was unilaterally initiated. Starting at 1 week post-MMT surgery, rats were two times per week intra-articularly injected with saline, 100 ng peptide p[63−82] in saline, or 100 ng scrambled peptide p[63−82] in saline. At 4 weeks post-MMT surgery, rats were sacrificed for histopathological scoring of the MMT knee joints. […] However, cartilage-degenerative changes were less apparent in the p[63−82] group (Figure 7A, middle panel). […] The femoral compartment also developed cartilage degeneration but less pronounced. This compartment is also more variable in its degenerative changes.[35] […] Cartilage-degeneration scores in zones 2 and 3 were generally low, as is known for the rat MMT model.[35] […] Other scored histopathological items can be found in Figure S5.
Figure 7 BMP7-derived peptide p[63−82] in rat MMT model The potency of BMP7 peptide p[63−82] to delay the progression of trauma-induced cartilage degeneration was tested in the rat MMT model. 1 week post-MMT-surgery, rats were two times per week intra-articularly injected with saline, 100 ng peptide p[63−82] in saline, or 100 ng scrambled peptide p[63−82] in saline (10 rats per group). All injection volumes were 50 μL. At 4 weeks post-MMT surgery, rats were sacrificed for histopathological scoring of the MMT knee joints. (A) Representative micrographs of toluidine blue-stained sections of medial aspects of the MMT knee joints. Conditions are indicated. (B) Medial tibia cartilage-degeneration scores. (C) Medial femur cartilage-degeneration scores. (D) Medial tibia cartilage-degeneration depth ratios. Scores and ratios are shown for zones 1, 2, and 3 individually.[35] The total scores/ratio are cumulative for zone 1, 2, and 3. (E) Total joint scores. Individual data points represent individual rats. Error bars represent mean ± SEM. Statistical differences were calculated between groups (Mann-Whitney U test), and ∗p < 0.05, ∗∗p < 0.01, and ∗∗∗p < 0.001.
The study was conducted via a contract research project at Bolder BioPATH (Boulder, CO, USA); study designs and animal usage were approved by their Institutional Animal Care and Use Committee (IACUC) prior to study initiation (IACUC protocols BBP13-029 and BBP12-004). Animal care, including room, cage, and equipment sanitation, conformed to accepted guidelines cited in the Guide for the Care and Use of Laboratory Animals (the Guide; 2011) and the applicable Bolder BioPATH standard operating procedures (SOPs). Male Lewis rats (n = 48; ∼283 g; Envigo RMS, Indianapolis, IN, USA) underwent a unilateral MMT on study day 0, as established earlier by Bendele et al.[59]^,[60] Rats were intra-articularly injected on days 7, 10, 14, 17, 21, and 24 with saline (0.9% NaCl, 50 μL/injection/animal), peptide p[63−82] (100 ng [in 50 μL saline]/injection/animal), or scrambled peptide p[63−82] (100 ng [in 50 μL saline]/injection/animal). The animals were euthanized for necropsy 28 days post-surgery.[59]^,[60] Right (surgery) knees from all animals were collected, trimmed of muscle (patella removed), and placed in 10% neutral-buffered formalin and then transferred to 70% ethanol for processing for microscopy. Operated joints were cut into two approximately equal halves in the frontal plane and embedded in paraffin. One section was cut from each knee and stained with toluidine blue. The worst-case scenario for the two halves on each slide was determined and used for evaluation. The tissues were analyzed microscopically by a veterinary pathologist as described earlier[35] (Tables S4–S13).

[1] = 100 ng intra-articular two times per week, 4 weeks (Figure 7D)
[2] = 100 ng intra-articular two times per week, 4 weeks (Figures 7B, 7C)
[3] = 100 ng intra-articular two times per week, 4 weeks

Substance: H-AAYYSEGESAFPLNSYMNAT-OH [p[63−82]]
- histology of medial tibia plateau (toluidine blue), cartilage-degenerative changes (4 weeks): less apparent
- medial femur cartilage-degeneration score, zone 1, versus saline (100 ng intra-articular two times per week, 4 weeks (Figure 7C)): trend toward a statistically significant lower
- depth ratio of tibia cartilage degeneration, zone 1, versus saline [1]: significantly lower
- total depth ratio score of tibia cartilage degeneration, versus saline [1]: significantly lower
- cartilage-degeneration scores, p[63-82] versus scrambled p[63-82] [2]: did not reveal differences that were statistically significant
- combined (total) tibia and femur cartilage-degeneration scores, versus saline [2]: significantly lower
- medial tibia cartilage-degeneration score, zone 1, versus saline (100 ng intra-articular two times per week, 4 weeks, Mann-Whitney U test (Figure 7B)): significantly lower
- total joint score [3]: significantly lower
- total joint score (100 ng intra-articular two times per week, 4 weeks, listed as p[62−83]): significantly improve

Substance: H-SEASPAMYYLNATANFYESG-OH [scrambled p[63−82], scrambled version of peptide p[63−82], reference compound]
- histology of medial tibia plateau (toluidine blue), cartilage-degenerative changes (4 weeks): diminished toluidine blue staining and lower chondrocyte cellularity at the lateral side of the medial tibia plateau, as well as cartilage degeneration
- cartilage-degeneration scores of tibia or femur in any of the 3 zones, versus saline [2]: no statistically significant differences
- combined (total) tibia and femur cartilage-degeneration scores, versus saline [2]: Neither was there a significant difference
- total joint score [3]: in between the values for saline and p[63−82] peptide but was not statistically different compared to either one of the saline or p[63−82] conditions
